Test results taken from the NIST ThermoML archive (doi:10.1016/j.jct.2018.08.004).

Experiment: xn = mol fraction of the nth substance listed
Conditions: for surface tension liquid-gas: Maximal bubble pressure; for mass density: 100 kPa, Liquid, Vibrating tube method

CCCC[n+]1ccccc1.N#C[N-]C#N [1-butylpyridinium dicyanamide] + CCO
Conditions | mass density [kg/m3] | surface tension liquid-gas [mN/m]
288.15 K, x1 = 0.0999 | 877.29 | 25.7
288.15 K, x1 = 0.201 | 930.73 | 28
288.15 K, x1 = 0.2996 | 967.04 | 30.3
288.15 K, x1 = 0.3993 | 994.22 | 33.2
288.15 K, x1 = 0.4897 | 1013.42 | 35.8
288.15 K, x1 = 0.6017 | 1032.37 | 38.3
288.15 K, x1 = 0.693 | 1044.81 | 40.9
288.15 K, x1 = 0.7974 | 1056.62 | 44.5
288.15 K, x1 = 0.905 | 1066.7 | 50.3
288.15 K, x1 = 1 | 1074.97 | 56.3
293.15 K, x1 = 0.0999 | 873.42 | 25.1
293.15 K, x1 = 0.201 | 927.12 | 27.5
293.15 K, x1 = 0.2996 | 963.57 | 29.8
293.15 K, x1 = 0.3993 | 990.86 | 32.9
293.15 K, x1 = 0.4897 | 1010.13 | 35.5
293.15 K, x1 = 0.6017 | 1029.14 | 38
293.15 K, x1 = 0.693 | 1041.62 | 40.6
293.15 K, x1 = 0.7974 | 1053.47 | 44.2
293.15 K, x1 = 0.905 | 1063.59 | 50
293.15 K, x1 = 1 | 1071.9 | 56
298.15 K, x1 = 0.0999 | 869.54 | 24.6
298.15 K, x1 = 0.201 | 923.5 | 27.1
298.15 K, x1 = 0.2996 | 960.1 | 29.5
298.15 K, x1 = 0.3993 | 987.5 | 32.6
298.15 K, x1 = 0.4897 | 1006.84 | 35.2
298.15 K, x1 = 0.6017 | 1025.91 | 37.7
298.15 K, x1 = 0.693 | 1038.43 | 40.3
298.15 K, x1 = 0.7974 | 1050.31 | 43.9
298.15 K, x1 = 0.905 | 1060.48 | 49.7
298.15 K, x1 = 1 | 1068.83 | 55.7
303.15 K, x1 = 0.0999 | 865.66 | 24.2
303.15 K, x1 = 0.201 | 919.87 | 26.7
303.15 K, x1 = 0.2996 | 956.64 | 29.1
303.15 K, x1 = 0.3993 | 984.14 | 32.3
303.15 K, x1 = 0.4897 | 1003.56 | 34.9
303.15 K, x1 = 0.6017 | 1022.7 | 37.4
303.15 K, x1 = 0.693 | 1035.25 | 40
303.15 K, x1 = 0.7974 | 1047.18 | 43.6
303.15 K, x1 = 0.905 | 1057.35 | 49.4
303.15 K, x1 = 1 | 1065.76 | 55.5
308.15 K, x1 = 0.0999 | 861.77 | 23.8
308.15 K, x1 = 0.201 | 916.25 | 26.3
308.15 K, x1 = 0.2996 | 953.18 | 28.8
308.15 K, x1 = 0.3993 | 980.79 | 31.9
308.15 K, x1 = 0.4897 | 1000.29 | 34.5
308.15 K, x1 = 0.6017 | 1019.5 | 37
308.15 K, x1 = 0.693 | 1032.09 | 39.7
308.15 K, x1 = 0.7974 | 1044.05 | 43.3
308.15 K, x1 = 0.905 | 1054.26 | 49.1
308.15 K, x1 = 1 | 1062.7 | 55.2
313.15 K, x1 = 0.0999 | 857.88 | 23.4
313.15 K, x1 = 0.201 | 912.63 | 25.9
313.15 K, x1 = 0.2996 | 949.73 | 28.3
313.15 K, x1 = 0.3993 | 977.47 | 31.4
313.15 K, x1 = 0.4897 | 997.04 | 34.1
313.15 K, x1 = 0.6017 | 1016.31 | 36.7
313.15 K, x1 = 0.693 | 1028.95 | 39.4
313.15 K, x1 = 0.7974 | 1040.95 | 43.1
313.15 K, x1 = 0.905 | 1051.18 | 48.8
313.15 K, x1 = 1 | 1059.66 | 54.9
318.15 K, x1 = 0.0999 | 853.98 | 22.7
318.15 K, x1 = 0.201 | 909.01 | 25.4
318.15 K, x1 = 0.2996 | 946.29 | 27.9
318.15 K, x1 = 0.3993 | 974.15 | 31.1
318.15 K, x1 = 0.4897 | 993.79 | 33.8
318.15 K, x1 = 0.6017 | 1013.14 | 36.4
318.15 K, x1 = 0.693 | 1025.82 | 39
318.15 K, x1 = 0.7974 | 1037.86 | 42.7
318.15 K, x1 = 0.905 | 1048.12 | 48.6
318.15 K, x1 = 1 | 1056.64 | 54.5
